Source: patent publication US8354447B2, “mGLU receptors antagonists for treating disorders associated with mGLU receptors including addiction and depression” (The Scripps Research Institute, priority 2002, dated 2013)
Where “and” joins values, the source holds several entries; their conditions need not be identical. Identical values can stand only once. Like-named read-outs stand apart in the source and are kept apart here.

Assays:
[1] = tested on: male Wistar rats; experiment: ICSS thresholds during spontaneous nicotine withdrawal; format: in vivo, rat
Description: (§1) Animals were trained to respond according to a modification of the discrete-trial current-threshold procedure of Kornetsky and Esposito (Fed Proc 38:2473-2476, 1979), which has been described in detail previously (Markou and Koob, 1992 Physiol Behav 51:111-119). Briefly, a trial was initiated by the delivery of a non-contingent electrical stimulus. […] The current intensity delivered was adjusted for each animal and typically ranged from 50 to 200 μA. […] After a variable inter-trial interval (7.5-12.5 sec, average of 10 sec), another trial was initiated with the delivery of a non-contingent electrical stimulus. […] Responding during the inter-trial interval delayed the onset of the next trial by 12.5 sec. Current levels were varied in alternating descending and ascending series. A set of three trials was presented for each current intensity. Current intensities were altered in 5 μA steps. In each testing session, four alternating descending-ascending series were presented. […] The overall threshold of the session was defined as the mean of the thresholds for the four individual series. Each testing session was ˜30 min in duration. The latency between the onset of the non-contingent stimulus and a positive response was recorded as the response latency. The response latency for each test session was defined as the mean response latency of all trials during which a positive response occurred. After establishment of stable ICSS reward thresholds, rats were tested in the ICSS procedure once daily except for the spontaneous nicotine withdrawal experiment when rats were tested at time-points according to the experimental design.
Osmotic mini-pumps were surgically removed from nicotine-treated rats (n=15) (defined as rats having been prepared with mini-pumps delivering 3.16 mg/kg/day nicotine free-base for at least seven days) or corresponding control rats (n=17; rats prepared with vehicle-containing mini-pumps). All rats were then tested in the ICSS procedure at 12, 18, 24, 36, 48 and 72 hr after the removal of osmotic mini-pumps. These time points were chosen based on the time course of threshold elevations previously observed during spontaneous nicotine withdrawal after removal of nicotine-delivering osmotic mini-pumps (Harrison et al., 2001, Neuropsychopharmacology 25:55-71; K.L.). […] Thirty min before being tested at the 18 h time-point, one group of nicotine withdrawing and one group of control rats were injected with LY341495 (1 mg/kg); the remaining rats were injected with vehicle.

[2] = tested on: mice; details: 30 mg/kg i.p.; cited from earlier work
[3] = tested on: male Wistar rats
Description: as §1
Systemic administration experiments. These experiments investigated whether nicotine withdrawal, as measured by elevations in ICSS thresholds, could be precipitated in nicotine-treated rats by systemic administration of an agonist at mGluII receptors (LY314582), an agonist at GABAB receptors (CGP44532), or antagonists at mGlu5 (MPEP), NMDA (MK-801) or AMPA/Kainate (NBQX) glutamate receptors. For each drug tested, rats were trained in the ICSS paradigm until stable baseline responding was achieved, defined as ≦10% variation in thresholds for 3 consecutive days and requiring approximately 14 days of daily testing. […] One group was then prepared with subcutaneous osmotic mini-pumps delivering vehicle and the second group with mini-pumps delivering 9 mg/kg/day nicotine hydrogen tartrate (3.16 mg/kg/day nicotine free base). There was a minimum seven-day interval after mini-pump implantation, during which ICSS reward thresholds continued to be measured daily, before the effect of any systemically administered drug on reward thresholds was evaluated.

[4] = tested on: Wistar rats; experiment: Cocaine, nicotine and food responding under a progressive ratio schedule; format: in vivo, rat
Description: Under a fixed ratio schedule of reinforcement, as described above, an animal responds a ‘fixed’ number of times on an active lever to obtain a drug infusion. Fixed ratio (FR) schedules of reinforcement provide important information on whether a drug is reinforcing. […] By determining how hard an animal is willing to work for a drug, while limiting total intake, the PR schedule allows better separation of motivation for drug consumption from possible satiating effects of cumulative drug doses (Stafford et al. 1998). Such characteristics result in theoretically different interpretations of the factors controlling drug-seeking behavior on a PR compared with a FR. […] After acquisition of cocaine or nicotine self-administration under an FR, as described above, rats were switched to a PR schedule of reinforcement in which the following sequence of level presses was required to receive each subsequent infusion of nicotine or cocaine: 5, 10, 17, 24, 32, 42, 56, 73, 95, 124, 161, 208, etc. Rats were injected with MPEP (0, 1, 3 or 9 mg/kg) 30 min prior to each PR session. All PR sessions lasted for 3 h. All subjects reached breaking-points during the 3 hour session.

[5] = MPEP 0.01 mg/kg i.p., Nicotine-treated rats
[6] = MPEP 0.01 mg/kg i.p., Vehicle-treated rats
[7] = MPEP 0.05 mg/kg i.p., Nicotine-treated rats
[8] = MPEP 0.05 mg/kg i.p., Vehicle-treated rats
[9] = MPEP 0.1 mg/kg i.p., Nicotine-treated rats
[10] = MPEP 0.1 mg/kg i.p., Vehicle-treated rats
[11] = MPEP 0.5 mg/kg i.p., Nicotine-treated rats
[12] = MPEP 0.5 mg/kg i.p., Vehicle-treated rats
[13] = MPEP 1 mg/kg i.p., Nicotine-treated rats
[14] = MPEP 1 mg/kg i.p., Vehicle-treated rats
[15] = MPEP 2 mg/kg i.p., Nicotine-treated rats
[16] = MPEP 2 mg/kg i.p., Vehicle-treated rats
[17] = MPEP 3 mg/kg i.p., Nicotine-treated rats
[18] = MPEP 3 mg/kg i.p., Vehicle-treated rats

CN1CCCC1c1cccnc1 (single isomer, unassigned; (-)) [nicotine, (−)-1-methyl-2-(3-pyridyl) pyrrolidine]
ICSS reward threshold elevation ([1]; 12 h after removal of mini-pumps delivering 3.16 mg/kg/day nicotine free-base, two groups before treatment (n=8, n=7)): 117.67±3.1% and 119.93±3.5%
ICSS Thresholds ([1]; withdrawal from chronic nicotine treatment): produced robust ICSS threshold elevations compared to control rats

Cc1cccc(C#Cc2ccccc2)n1 [MPEP, 2-methyl-6-(phenylethynyl)-pyridine]
rotarod performance [2]: had no effect on rotarod performance
ICSS Thresholds [3, 5]: 93.86 ± 6.0 percentage of baseline
ICSS response Latencies [3, 5]: 101.50 percentage of baseline
ICSS Thresholds [3, 6]: 98.75 ± 3.5 percentage of baseline
ICSS response Latencies [3, 6]: 99.75 ± 3.4 percentage of baseline
ICSS Thresholds [3, 7]: 94.11 ± 2.6 percentage of baseline
ICSS response Latencies [3, 7]: 103.48 percentage of baseline
ICSS Thresholds [3, 8]: 101.27 ± 4.1 percentage of baseline
ICSS response Latencies [3, 8]: 104.87 ± 3.3 percentage of baseline
ICSS Thresholds [3, 9]: 103.84 ± 1.2 percentage of baseline
ICSS response Latencies [3, 9]: 102.54 percentage of baseline
ICSS Thresholds [3, 10]: 105.13 ± 3.2 percentage of baseline
ICSS response Latencies [3, 10]: 105.13 ± 4.8 percentage of baseline
ICSS Thresholds [3, 11]: 104.02 ± 2.2 percentage of baseline
ICSS response Latencies [3, 11]: 99.47 percentage of baseline
ICSS Thresholds [3, 12]: 103.01 ± 2.7 percentage of baseline
ICSS response Latencies [3, 12]: 103.20 ± 4.4 percentage of baseline
ICSS Thresholds [3, 13]: 105.81 ± 3.3 percentage of baseline
ICSS response Latencies [3, 13]: 99.12 percentage of baseline
ICSS Thresholds [3, 14]: 103.70 ± 3.0 percentage of baseline
ICSS response Latencies [3, 14]: 100.72 ± 2.1 percentage of baseline
ICSS Thresholds [3, 15]: 121.17 ± 6.2 percentage of baseline
ICSS response Latencies [3, 15]: 101.31 percentage of baseline
ICSS Thresholds [3, 16]: 111.21 ± 2.3 percentage of baseline
ICSS response Latencies [3, 16]: 107.60 ± 2.6 percentage of baseline
ICSS Thresholds [3, 17]: 119.11 ± 5.5 percentage of baseline
ICSS response Latencies [3, 17]: 102.22 percentage of baseline
ICSS Thresholds [3, 18]: 111.52 ± 4.8 percentage of baseline
ICSS response Latencies [3, 18]: 103.58 ± 2.3 percentage of baseline
ICSS reward thresholds ([3]; MPEP 0.01-0.1 mg/kg, nicotine-treated or control rats): did not affect reward thresholds
ICSS reward thresholds ([3]; MPEP 0.5-3 mg/kg): elevated reward thresholds in nicotine-treated and control rats
ICSS response Latencies ([3]; MPEP 0.5-3 mg/kg, either group): had no effect on response latencies
responding for food ([4]; MPEP 1-9 mg/kg, PR schedule): no statistically significant effect on responding for food
responding under a progressive ratio schedule (motivation) ([4]; MPEP 1-9 mg/kg, cocaine, nicotine, food): decreased the motivation of rats to obtain cocaine or nicotine without affecting their motivation for food
break point ([4]; PR schedule, cocaine and nicotine): significantly lowered the break point for cocaine and nicotine
